{"source": "paper PMC6340938", "about": "“Three Novel ACE Inhibitory Peptides Isolated From Ginkgo biloba Seeds: Purification, Inhibitory Kinetic and Mechanism” (Frontiers in Pharmacology, 2019)", "key": {"ACE": {"test_system": "ACE", "conditions": "2017, cited from earlier work; for Inhibition mode: ref Lin et al.; for ACE inhibitory activity (in words): peptides containing hydrophobic amino acid (Leu), ref Lee and Hur", "from_the_text": "According to report by [Hernández-Ledesma et al. (2011)], most of the ACE inhibiting peptides were short sequences consisting of 2–12 amino acids. In addition, the activity of the ACE-inhibiting peptide was strongly related to the pres ... || The mode of inhibition of ACE-inhibiting peptides was observed generally non-competitive, competitive, and mixed."}, "[1]": {"conditions": "currently used blood pressure lowering drugs; ref Yu et al., 2018; cited from earlier work", "from_the_text": "As per the World Health Organization estimate, CVD accounts for the mortality of more than 17.5 million people every year. Among the important characteristics of CVD, hypertension is an essential target for the prevention and treatment of CVD ([Celermajer et al., 2012]). […] Lately, signific ..."}, "[2]": {"target": "T1, angiotensin converting enzyme (ACE) (Homo sapiens, UniProt P12821)", "T1 sequence (P12821 30-1306, species assumed)": "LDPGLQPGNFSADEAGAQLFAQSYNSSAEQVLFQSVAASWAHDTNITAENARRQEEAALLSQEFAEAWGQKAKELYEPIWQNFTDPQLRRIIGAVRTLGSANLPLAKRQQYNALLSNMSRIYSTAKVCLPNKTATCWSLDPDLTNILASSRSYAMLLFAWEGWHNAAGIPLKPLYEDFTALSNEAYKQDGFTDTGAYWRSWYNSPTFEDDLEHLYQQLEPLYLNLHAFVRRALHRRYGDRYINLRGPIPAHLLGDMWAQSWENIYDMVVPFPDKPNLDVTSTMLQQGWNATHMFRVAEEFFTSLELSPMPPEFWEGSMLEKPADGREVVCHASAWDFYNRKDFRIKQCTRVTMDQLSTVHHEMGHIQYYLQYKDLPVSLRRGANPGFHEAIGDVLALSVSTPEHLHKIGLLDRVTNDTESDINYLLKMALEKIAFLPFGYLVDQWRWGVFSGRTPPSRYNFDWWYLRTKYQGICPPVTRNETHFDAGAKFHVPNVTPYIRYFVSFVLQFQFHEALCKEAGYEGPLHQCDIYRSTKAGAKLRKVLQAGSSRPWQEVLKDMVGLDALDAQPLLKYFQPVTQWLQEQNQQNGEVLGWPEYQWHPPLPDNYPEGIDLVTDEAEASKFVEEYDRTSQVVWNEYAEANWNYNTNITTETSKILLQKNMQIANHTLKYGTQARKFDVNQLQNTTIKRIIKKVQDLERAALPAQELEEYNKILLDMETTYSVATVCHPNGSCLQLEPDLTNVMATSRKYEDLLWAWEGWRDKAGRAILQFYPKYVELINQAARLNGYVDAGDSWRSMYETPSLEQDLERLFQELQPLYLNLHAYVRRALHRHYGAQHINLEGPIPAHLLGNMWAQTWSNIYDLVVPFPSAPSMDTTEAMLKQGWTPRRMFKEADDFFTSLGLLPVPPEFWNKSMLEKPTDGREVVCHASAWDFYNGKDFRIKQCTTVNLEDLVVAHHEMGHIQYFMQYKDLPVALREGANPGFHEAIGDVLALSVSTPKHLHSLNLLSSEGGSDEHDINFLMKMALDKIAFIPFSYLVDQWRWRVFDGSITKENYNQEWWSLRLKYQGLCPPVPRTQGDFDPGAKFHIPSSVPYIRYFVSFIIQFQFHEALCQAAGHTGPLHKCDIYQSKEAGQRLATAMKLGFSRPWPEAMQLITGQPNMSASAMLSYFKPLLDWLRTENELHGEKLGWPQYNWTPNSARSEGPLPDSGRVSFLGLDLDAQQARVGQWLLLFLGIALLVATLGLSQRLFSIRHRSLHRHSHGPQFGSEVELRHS", "experiment": "Kinetics of ACE inhibition, Lineweaver-Burk plot", "type": "biochemical", "conditions": "HHL 0.5, 1, 2, 5 mM, peptide 0, 15, 30 μM", "protocol": "The kinetic inhibition model of G. biloba peptide was tested using the method of [Lin et al. (2017)]. Briefly, different concentrations of substrate HHL (0.5, 1, 2, and 5 mM) were allowed to react with ACE. The Lineweaver-Burk plot was based on the reciprocal of the reaction rate (1/v) and the substrate concentration (1/[s]). The intercepts on the X- and Y-axes represented the reciprocals of Km and Vmax, respectively.\nFIGURE 5 The Lineweaver-Burk plot of the inhibitory effects on ACE activities of peptides. (A) TNLDWY, (B) RADFY, and (C) RVFDGAV. The ACE activities were determined in the absence and presence of different concentrations of the peptides (0, 15, and 30 μM)."}, "[3]": {"target": "T1, angiotensin converting enzyme (ACE)", "experiment": "ACE inhibitory activity, HHL substrate, RP-HPLC of hippuric acid", "type": "biochemical", "conditions": "synthetic peptides, purity >95%; HHL 5 mM, borate pH 8.3, 0.3 M NaCl, 37°C, 45 min, ACE 50 mU/mL; RP-HPLC 228 nm; mean, n = 3", "protocol": "This test was performed as per the descriptions are given by the previous report by [O’Loughlin et al. (2014)] with some modifications. Briefly, the substrate hippuryl-histidyl-leucine (HHL, 5 mM) and samples were mixed in 0.1 M Na2[B4O5(OH)4] (pH 8.3) with 0.3 M sodium chloride. Then after, 50 μL of sample and 150 μL of the substrate were added to a centrifuge tube, mixed and allowed to stand in water at 37°C for 5 min. Subsequently, the ACE solution (50 mU/mL) was added and incubated at 37°C for 45 min. The reaction was terminated by adding 250 μL of 1M HCl and the solution was filtered through […] nylon syringe filter before being analyzed by RP-HPLC (Waters, Milford, MA, United States) on an Inertsil ODS-3 (250 × 4.6 mm, 5 μm particle size). The mobile phase comprised of distilled water: acetonitrile = 75:25 (V/V, with 0.1% TFA) with a flow rate of 0.5 mL/min and detection at 228 nm. Captopril was used as a control and the inhibitory activity (%) was determined as below:\nACE inhibitory activity (%)=[(A−B)/A]×100\nwhere A was the peak area of hippuric acid with the sample, B was without the sample."}, "[4]": {"conditions": "Qula casein and hazelnut peptides, Liu et al., 2018"}}, "note": "Read-outs that look alike come from different tables or passages of the source. Where no end group is shown, it is not given here.", "data": [{"compound": "PFPGPIPN", "values": [{"measurement": "Inhibition mode", "setting": "ACE; [4]", "value": "non-competitive"}]}, {"compound": "KYIPIQ [peptide from Qula casein]", "values": [{"measurement": "Inhibition mode", "setting": "ACE; peptides from Qula casein", "value": "competitive inhibition mode"}]}, {"compound": "CCOC(=O)[C@H](CCc1ccccc1)N[C@@H](C)C(=O)N1CCC[C@H]1C(=O)O", "note": "[enalapril]", "values": [{"measurement": "Adverse reactions", "setting": "[1]", "value": "cough, rash, and headache"}]}, {"compound": "RADFY [RADFY, Arg-Ala-Asp-Phe-Tyr]", "values": [{"measurement": "Effect on Km", "setting": "[2]", "value": "Km increased with the increasing peptide concentration"}, {"measurement": "IC50", "setting": "[3]", "value": 1350, "unit": "µM"}]}, {"compound": "RVFDGAV [RVFDGAV, Arg-Val-Phe-Asp-Gly-Ala-Val]", "values": [{"measurement": "Effect on Km", "setting": "[2]", "value": "Km increased with the increasing peptide concentration"}, {"measurement": "IC50", "setting": "[3]", "value": 1010, "unit": "µM"}]}, {"compound": "KPLL", "values": [{"measurement": "ACE inhibitory activity (in words)", "setting": "ACE", "value": "appreciable ACE inhibitory activity"}]}, {"compound": "TNLDWY [TNLDWY, Thr-Asn-Leu-Asp-Trp-Tyr]", "values": [{"measurement": "Effect on Km", "setting": "[2]", "value": "Km did not change significantly with peptide concentration"}, {"measurement": "IC50", "setting": "[3]", "value": 1930, "unit": "µM"}]}, {"compound": "VLAQYK", "values": [{"measurement": "ACE inhibitory activity (in words)", "setting": "ACE", "value": "appreciable ACE inhibitory activity"}]}, {"compound": "LPLPLL [peptide from Qula casein]", "values": [{"measurement": "Inhibition mode", "setting": "ACE; peptides from Qula casein", "value": "competitive inhibition mode"}]}, {"compound": "C[C@H](CS)C(=O)N1CCC[C@H]1C(=O)O", "note": "[captopril]", "values": [{"measurement": "Adverse reactions", "setting": "[1]", "value": "cough, rash, and headache"}]}, {"compound": "YLVR [hazelnut peptide]", "values": [{"measurement": "Inhibition mode", "setting": "ACE; [4]", "value": "non-competitive"}]}]}
